For the assay, the target named is Neuraminidase (Influenza A virus (A/Puerto Rico/8/1934(H1N1)), UniProt P03468, H274Y). Kind of assay: Inhibition of influenza A virus H1N1 neuraminidase H274Y mutant.

Molecules are shown by their SMILES.

`C[C@@H]1C[C@H](C)C(=O)[C@@H]2O[C@@H]2[C@@H]2[C@@H](O)[C@@H]3OC4=C(C(=O)O[C@@]42C[C@H]3C)C1=O` showed an IC50 of over 44.2 µM.

One may read the IC50 as the point on the concentration scale where inhibition reaches its midpoint.
